Reference: ChEMBL document CHEMBL5352475, “Design, synthesis, and biological evaluation of novel glutaminase 1 allosteric inhibitors with an alkane chain tail group” (Eur J Med Chem, 2023)

Experiments:
[1] = Toxicity in BALB/c nude mouse xenografted with human HCT-116 cells assessed as proliferation of hepatocyte in liver at 100 mg/kg, ip upto 20 days; assay type: organism-based; settings: in vivo, 480 h, time < 20 day
[2] = Toxicity in BALB/c nude mouse xenografted with human HCT-116 cells assessed as prominent of nucleolus in liver at 100 mg/kg, ip upto 20 days; assay type: organism-based; settings: in vivo, 480 h, time < 20 day
[3] = Toxicity in BALB/c nude mouse xenografted with human HCT-116 cells assessed as as body weight loss at 100 mg/kg, ip upto 20 days; assay type: organism-based; settings: in vivo, 480 h, time < 20 day
[4] = Metabolic stability in human liver microsomes assessed as half life by LC-MS/MS analysis; assay type: ADME, Microsome
[5] = tested on: HCT-116; assay: Antitumor activity against human HCT-116 cells xenografted in BALB/c nude mouse assessed as tumor growth inhibition at 100 mg/kg, ip for 20 days relative to control; assay type: functional; settings: time 20 day
[6] = Metabolic stability in human liver microsomes assessed as clearance measured upto 120 mins by LC-MS/MS analysis; assay type: ADME, Microsome; settings: read-out: CLH
[7] = Toxicity in BALB/c nude mouse xenografted with human HCT-116 cells assessed as cytoplasmic acidophilia in liver at 100 mg/kg, ip upto 20 days; assay type: organism-based; settings: in vivo, 480 h, time < 20 day
[8] = Toxicity in BALB/c nude mouse xenografted with human HCT-116 cells assessed as hyperplasia of renal tubular epithelium in kidney at 100 mg/kg, ip upto 20 days; assay type: organism-based; settings: in vivo, 480 h, time < 20 day
[9] = tested on: HCT-116; assay: cells; settings: Homo sapiens, HCT-116, 72 h
Description: Antiproliferative activity against human HCT-116 cells incubated for 72 hrs by MTT assay

[10] = Toxicity in BALB/c nude mouse xenografted with human HCT-116 cells assessed as degeneration of hepatocyte in liver at 100 mg/kg, ip upto 20 days; assay type: organism-based; settings: in vivo, 480 h, time < 20 day
[11] = Toxicity in BALB/c nude mouse xenografted with human HCT-116 cells assessed as partial pyknosis of nuclei in liver at 100 mg/kg, ip upto 20 days; assay type: organism-based; settings: in vivo, 480 h, time < 20 day
[12] = tested on: HCT-116; assay: Induction of apoptosis in human HCT-116 cells assessed as early apoptotic cells at 1 uM measured after 24 hrs by FITC annexin-V/PI staining based flow cytometric analysis (reference value: 3.73%); assay type: functional
[13] = Toxicity in BALB/c nude mouse xenografted with human HCT-116 cells assessed as change in cell morphology in lung at 100 mg/kg, ip upto 20 days; assay type: organism-based; settings: in vivo, 480 h, time < 20 day
[14] = tested on: HCT-116; assay: Induction of apoptosis in human HCT-116 cells assessed as early apoptotic cells at 0.1 uM measured after 24 hrs by FITC annexin-V/PI staining based flow cytometric analysis (reference value: 3.73%); assay type: functional
[15] = tested on: HCT-116; assay: Induction of apoptosis in human HCT-116 cells assessed as early apoptotic cells at 10 uM measured after 24 hrs by FITC annexin-V/PI staining based flow cytometric analysis (reference value: 3.73%); assay type: functional
[16] = Toxicity in BALB/c nude mouse xenografted with human HCT-116 cells assessed as change in cell structure in kidney at 100 mg/kg, ip upto 20 days; assay type: organism-based; settings: in vivo, 480 h, time < 20 day
[17] = tested on: HCT-116; assay: Induction of apoptosis in human HCT-116 cells assessed as late apoptotic cells at 0.1 uM measured after 24 hrs by FITC annexin-V/PI staining based flow cytometric analysis (reference value: 5.41%); assay type: functional
[18] = target: T1, Glutaminase kidney isoform, mitochondrial (Homo sapiens) (UniProt O94925)
T1 sequence (whole entry): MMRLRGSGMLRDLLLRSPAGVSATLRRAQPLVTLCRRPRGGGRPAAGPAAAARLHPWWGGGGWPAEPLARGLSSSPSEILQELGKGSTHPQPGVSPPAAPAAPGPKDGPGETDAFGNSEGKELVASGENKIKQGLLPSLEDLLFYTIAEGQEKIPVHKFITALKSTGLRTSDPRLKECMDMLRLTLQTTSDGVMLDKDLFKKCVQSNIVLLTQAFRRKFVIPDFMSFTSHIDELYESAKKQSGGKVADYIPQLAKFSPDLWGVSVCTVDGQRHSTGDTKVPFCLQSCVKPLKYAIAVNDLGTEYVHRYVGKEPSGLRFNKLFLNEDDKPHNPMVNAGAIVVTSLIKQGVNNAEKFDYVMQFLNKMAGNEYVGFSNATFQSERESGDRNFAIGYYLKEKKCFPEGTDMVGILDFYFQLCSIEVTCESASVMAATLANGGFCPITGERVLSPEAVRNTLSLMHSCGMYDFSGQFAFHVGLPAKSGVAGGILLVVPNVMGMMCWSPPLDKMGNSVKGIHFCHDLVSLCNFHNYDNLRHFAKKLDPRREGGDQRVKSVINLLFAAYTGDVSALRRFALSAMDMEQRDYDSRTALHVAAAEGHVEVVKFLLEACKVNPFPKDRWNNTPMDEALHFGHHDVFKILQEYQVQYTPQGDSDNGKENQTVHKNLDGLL
Description: Stabilization of GLS1 (unknown origin) assessed as change in melting temperature by protein thermal assay

[19] = tested on: HCT-116; assay: Induction of apoptosis in human HCT-116 cells assessed as late apoptotic cells at 3 uM measured after 24 hrs by FITC annexin-V/PI staining based flow cytometric analysis (reference value: 5.41%); assay type: functional
[20] = Toxicity in BALB/c nude mouse xenografted with human HCT-116 cells assessed as obvious tissue lesion in liver at 100 mg/kg, ip upto 20 days; assay type: organism-based; settings: in vivo, 480 h, time < 20 day
[21] = tested on: HCT-116; assay: Induction of apoptosis in human HCT-116 cells assessed as late apoptotic cells at 1 uM measured after 24 hrs by FITC annexin-V/PI staining based flow cytometric analysis (reference value: 5.41%); assay type: functional
[22] = Toxicity in BALB/c nude mouse xenografted with human HCT-116 cells assessed as obvious tissue lesion in kidney at 100 mg/kg, ip upto 20 days; assay type: organism-based; settings: in vivo, 480 h, time < 20 day
[23] = tested on: HCT-116; assay: Antiproliferative activity against human HCT-116 cells in presence of alpha-ketoglutarate; assay type: functional, cell-based
[24] = Toxicity in BALB/c nude mouse xenografted with human HCT-116 cells assessed as change in cell morphology in heart at 100 mg/kg, ip upto 20 days; assay type: organism-based; settings: in vivo, 480 h, time < 20 day
[25] = tested on: HCT-116; assay: Induction of apoptosis in human HCT-116 cells assessed as early apoptotic cells at 3 uM measured after 24 hrs by FITC annexin-V/PI staining based flow cytometric analysis (reference value: 3.73%); assay type: functional
[26] = tested on: HCT-116; assay: Induction of apoptosis in human HCT-116 cells assessed as late apoptotic cells at 0.3 uM measured after 24 hrs by FITC annexin-V/PI staining based flow cytometric analysis (reference value: 5.41%); assay type: functional
[27] = tested on: HCT-116; assay: Induction of apoptosis in human HCT-116 cells assessed as early apoptotic cells at 0.3 uM measured after 24 hrs by FITC annexin-V/PI staining based flow cytometric analysis (reference value: 3.73%); assay type: functional
[28] = Toxicity in BALB/c nude mouse xenografted with human HCT-116 cells assessed as obvious tissue lesion in spleen at 100 mg/kg, ip upto 20 days; assay type: organism-based; settings: in vivo, 480 h, time < 20 day
[29] = target: T2, Glutaminase kidney isoform, mitochondrial (Homo sapiens, UniProt O94925); assay: Inhibition of GLS1 (unknown origin) preincubated for 10 mins followed by glutamine addition measured after 60 mins
T2 sequence (O94925 whole entry): T1 sequence (whole entry)

[30] = Toxicity in BALB/c nude mouse xenografted with human HCT-116 cells assessed as change in cell structure in liver at 100 mg/kg, ip upto 20 days; assay type: organism-based; settings: in vivo, 480 h, time < 20 day
[31] = Toxicity in BALB/c nude mouse xenografted with human HCT-116 cells assessed as change in cell morphology in liver at 100 mg/kg, ip upto 20 days; assay type: organism-based; settings: in vivo, 480 h, time < 20 day
[32] = tested on: HCT-116; assay: Induction of apoptosis in human HCT-116 cells assessed as total apoptotic cells at 10 uM measured after 24 hrs by FITC annexin-V/PI staining based flow cytometric analysis relative to control; assay type: functional
[33] = Toxicity in BALB/c nude mouse xenografted with human HCT-116 cells assessed as obvious tissue lesion in heart at 100 mg/kg, ip upto 20 days; assay type: organism-based; settings: in vivo, 480 h, time < 20 day
[34] = Toxicity in BALB/c nude mouse xenografted with human HCT-116 cells assessed as change in cell morphology in kidney at 100 mg/kg, ip upto 20 days; assay type: organism-based; settings: in vivo, 480 h, time < 20 day
[35] = Toxicity in BALB/c nude mouse xenografted with human HCT-116 cells assessed as change in cell morphology in spleen at 100 mg/kg, ip upto 20 days; assay type: organism-based; settings: in vivo, 480 h, time < 20 day
[36] = Toxicity in BALB/c nude mouse xenografted with human HCT-116 cells assessed as change in cell structure in lung at 100 mg/kg, ip upto 20 days; assay type: organism-based; settings: in vivo, 480 h, time < 20 day
[37] = tested on: HCT-116; assay: Induction of apoptosis in human HCT-116 cells assessed as late apoptotic cells at 10 uM measured after 24 hrs by FITC annexin-V/PI staining based flow cytometric analysis (reference value: 5.41%); assay type: functional
[38] = Toxicity in BALB/c nude mouse xenografted with human HCT-116 cells assessed as change in cell structure in heart at 100 mg/kg, ip upto 20 days; assay type: organism-based; settings: in vivo, 480 h, time < 20 day
[39] = Toxicity in BALB/c nude mouse xenografted with human HCT-116 cells assessed as obvious tissue lesion in lung at 100 mg/kg, ip upto 20 days; assay type: organism-based; settings: in vivo, 480 h, time < 20 day
[40] = Toxicity in BALB/c nude mouse xenografted with human HCT-116 cells assessed as change in cell structure in spleen at 100 mg/kg, ip upto 20 days; assay type: organism-based; settings: in vivo, 480 h, time < 20 day

With `O=C(Cc1cccc(OC(F)(F)F)c1)Nc1ccc(CCCCc2nnc(NC(=O)Cc3ccccn3)s2)nn1` the Activity [1] was “Toxic”, the Activity [2] was “Toxic” and the Activity [3] was “Non-Toxic”. It also gave a half-life [4] of 1.65 h, a TGI [5] of 43.7% and a microsomal CLint [6] of 35 µL/min/mg. For the same compound, the Activity [7] was “Toxic”, the Activity [8] was “Toxic” and the IC50 [9] was 560 nM. The Activity [10] was “Toxic” and the Activity [11] was “Toxic”.
For `CCCCOc1cccc(CC(=O)Nc2ccc(N3CCC(Nc4nnc(NC(=O)CCCC)s4)CC3)nn2)c1`, the Activity [12] was 5.84%, the Activity [13] was “Non-Toxic” and the Activity [3] was “Non-Toxic”. For the same compound, the Activity [14] was 4.9%, the Activity [15] was 8.52% and the Activity [16] was “Non-Toxic”. It also gave an Activity [17] of 7.63%, a half-life [4] of 1.8 h and a ΔTm [18] of 15.1 °C. For the same compound, the Activity [19] was 17.2%, the Activity [20] was “Non-Toxic” and the TGI [5] was 38.9%. For the same compound, the microsomal CLint [6] was 32 µL/min/mg, the Activity [21] was 12.3% and the Activity [22] was “Non-Toxic”. The IC50 [9] was 61 nM, the IC50 [23] was 41500 nM and the Activity [24] was “Non-Toxic”. It also gave an Activity [25] of 6.54%, an Activity [26] of 9.88% and an Activity [27] of 5.76%. The Activity [28] was “Non-Toxic”, the IC50 [29] was 7 nM and the Activity [30] was “Non-Toxic”. The Activity [31] was “Non-Toxic”, the Activity [32] was ~30% and the Activity [33] was “Non-Toxic”. For the same compound, the Activity [34] was “Non-Toxic”, the Activity [35] was “Non-Toxic” and the Activity [36] was “Non-Toxic”. The Activity [37] was 20.5%, the Activity [38] was “Non-Toxic” and the Activity [39] was “Non-Toxic”. The Activity [40] was “Non-Toxic”.
